US12358919B2, “Antibacterial compounds” (Universita' degli Studi di Siena, priority 2019, dated 2025)

Key:
[1] = tested on: Klebsiella pneumoniae ATCC 13833; experiment: microbe, parasite or virus in culture; format: cell-based
Method: (§1) Growth inhibition or killing of bacteria was investigated using conventional methods widely described in the scientific literature. Parameters such as the Minimum Inhibitory Concentration (MIC) were determined as described in Clinical Laboratory Standard Institute (CLSI) document M07 “Methods for Dilution Antimicrobial Susceptibility Tests for Bacteria That Grow Aerobically, 11th Edition” (2018). Synergistic activity of the compounds described in the present specification were determined by measuring the variation of the MIC's compound in the absence and presence of a sub-inhibitory concentration of a suitable antibacterial agent, such as polymyxin E1. Furthermore, the Fractional Inhibitory Concentrations (FICs) were measured using a chequerboard analysis to determine the average FIC index (FICI), whose value is known to characterize the interaction between two compounds and/or drugs (≤0.5, synergistic interaction; >0.5 and <2, no interaction, additive effect; ≥2, antagonistic interaction). Furthermore, the selectivity of the compounds was investigated by measuring their cytotoxic effect on mammalian cell lines (e.g. HeLa cells).
(§2) Several methods were used to investigate the synergistic activity of the compounds, including (a) the determination of the MIC in the presence of a sub-inhibitory concentration of a suitable antibacterial agent, (b) the determination of the average FICI using a chequerboard analysis and (c) the time-kill curve analysis of a suitable agent (at a sub-inhibitory concentration) in the absence and presence of the pyrazolo[4,3-b]pyridin-6-carboxamide compound at a fixed concentration of 2 or 8 mg/L.
(§3) The MIC of the compound was determined alone and in the presence of a fixed and sub-inhibitory concentration of a suitable antibacterial agent of the polymyxin class, such as polymyxin E1 (colistin). The potentiation fold was computed as the ratio MICcompound/MICcompound+polymyxin E. Tested organisms included Escherichia coli CCUG^TKlebsiella pneumoniae ATCC 13833 and Acinetobacter baumannii ATCC 17978, which show a colistin MIC of 0.5, 0.5 and 1 mg/L, respectively.

[2] = tested on: Acinetobacter baumannii ATCC 17978; experiment: microbe, parasite or virus in culture; format: cell-based
Method: as §1, §2, §3

Escherichia coli CCUG^T = experiment: microbe, parasite or virus in culture; format: cell-based; conditions: Escherichia coli
Method: as §1, §2, §3

K. pneumoniae SI-27 = experiment: Chequerboard analysis with polymyxin E1 (average FIC index); format: cell-based, Klebsiella pneumoniae; conditions: K. pneumoniae SI-27 (colistin-resistant); compound + polymyxin E1
K. pneumoniae SI-4B = experiment: as above; format: cell-based, Klebsiella pneumoniae; conditions: K. pneumoniae SI-4B (colistin-resistant); compound + polymyxin E1

**Q.** What does the source list for `CCCCn1c(=O)c(C(=O)NC23CC4CC(CC(C4)C2)C3)c(O)c2nn(CCO)cc21` [Im, N-(Adamantan-1-yl)-4-(1-butyl)-4,5-dihydro-7-hydroxy-2-(2-hydroxyethyl)-5-oxo-2H-pyrazolo[4,3-b]pyridin-6-carboxamide]?
**A.** Potentiation fold ([1]; K. pneumoniae ATCC 13833, ratio MICcompound/MICcompound+polymyxin E): ≥64; MIC in presence of colistin ([1]; K. pneumoniae ATCC 13833, with 0.25xMIC polymyxin E1 (0.12 mg/L)): 8 µg/mL; MIC ([1]; Klebsiella pneumoniae, ATCC13833): > 512 µg/mL; Potentiation fold ([2]; A. baumannii ATCC 17978, ratio MICcompound/MICcompound+polymyxin E): ≥64; MIC in presence of colistin ([2]; A. baumannii ATCC 17978, with 0.25xMIC polymyxin E1 (0.25 mg/L)): 8 µg/mL; MIC ([2]; Acinetobacter baumannii, ATCC17978): > 512 µg/mL; MIC (Escherichia coli CCUG^T): > 512 µg/mL; Average FIC index (K. pneumoniae SI-27): 0.41; Average FIC index (K. pneumoniae SI-4B): 0.31
